The values below come from patent publication US10626135B2, “Crystal forms of sodium-glucose co-transporter inhibitor, processes for preparation and use thereof” (CRYSTAL PHARMACEUTICAL (SUZHOU) CO., LTD., priority 2016, dated 2020).

Data set [1] is described as follows: Morphology assessment by polarized light microscopy. It is filed as physicochemical. The protocol:
The existing crystalline Form 2 and Form I in the present disclosure were tested by polarized light microscopy. The PLM results of the Form 2 and Form I were shown in FIG. 48 and FIG. 49, respectively.

The nature of data set [2]: Particle size distribution assessment (laser particle size analyzer). Format: physicochemical. As to conditions: for D10 / D50 / D90 / MV (average particle size based on volume): wet method, Isopar G. The text has this: The result of particle size distribution (PSD) in the present disclosure was acquired by laser particle size analyzer with S3500 model from Microtrac Company. The Microtrac S3500 is equipped with a SDC (Sample Delivery Controller) sampling system. This experiment uses a wet method and the dispersion medium is Isopar G. The method and parameters of the laser particle size analyzer are as follows: [table] Certain amount of Form I, Form V, Form VIII and existing crystalline Form 2 were taken for particle size distribution test, and the results were shown in Table 29.

A short description of data set [3]: Dynamic solubility in FaSSIF (fasted state simulated intestinal fluids, pH=6.5), HPLC. As to conditions: for Solubility relative to existing crystalline Form 2: FaSSIF, 1 hour. It is filed as physicochemical. The protocol: (§1) The HPLC method parameters for solubility test in the present disclosure are as follows:
(§2) Saturated solutions of Form I, Form II, Form III, Form VII and the existing crystalline Form 2 in SGF (Simulated gastric fluids) were prepared. Saturated solutions of Form II, Form III, Form VII, Form VIII and the existing crystalline Form 2 in FaSSIF (Fasted state simulated intestinal fluids, pH=6.5) were prepared. After equilibrated for 1 hour, concentrations of the saturated solutions were measured by High Performance Liquid Chromatography (HPLC).

The nature of data set [4]: Dynamic solubility in SGF (simulated gastric fluids), HPLC. It is filed as physicochemical. To be noted: for Solubility 1 hour: Media: SGF, equilibrated for 1 hour; for Solubility relative to existing crystalline Form 2: SGF, 1 hour. The protocol: as §1, §2
Data set [5] in a line: Mechanical stability assessment: manual grinding, XRPD. Format: physicochemical. As to conditions: ground manually for 5 minutes in mortar. On the procedure:
Solid sample of Form I, Form VI and the existing crystalline Form 2 were ground manually for 5 minutes in mortar. XRPD was applied to detect the crystalline form.

Data set [6] can be described thus: Stability study: mixture of forms stirred in solvent systems with different water activity, residual solid by XRPD. It is filed as physicochemical. As to conditions: high water activity (high humidity, ≥50% RH). The text has this:
The mixture of existing crystalline Form 2 disclosed in CN102112483A, Form I and Form II was stirred in several solvent systems with different water activity (aw).
It should be noted that the solvent systems for different water activity (aw) include but not limit to H2O and IPA. The same conclusion could be drawn with this experiment in other solvent systems suitable for the preparation of different water activity (aw).

Data set [7] in a line: Hygroscopicity assessment by dynamic vapor sorption (DVS). Format: physicochemical. As to conditions: 25° C.; for Form change before and after DVS: XRPD. On the procedure:
Dynamic Vapor Sorption (DVS) is measured via a SMS (Surface Measurement Systems Ltd.) intrinsic DVS. Typical Parameters for DVS test are as follows: Temperature: 25° C. Gas and flow rate: N2, 200 mL/min dm/dt: 0.002%/min Relative Humidity (RH) range: 20% RH-95% RH-0% RH-95% RH Dynamic vapor sorption (DVS) was applied to test hygroscopicity of crystalline Form I with 13.8 mg of sample Form I at 25° C. The weight gains at each relative humidity were recorded in a cycle of 20%-95%-0%-95% RH. […] Dynamic vapor sorption (DVS) was applied to test hygroscopicity of Form VII with 11.5 mg of sample Form VII at 25° C. The weight gains at each relative humidity were recorded in a cycle of 0%-95%-0% RH.

Data set [8] in a line: Stability study: storage at 25° C./60% RH and 40° C./75% RH, XRPD. It is filed as physicochemical. To be noted: for Stability on storage: 25° C./60% RH and 40° C./75% RH for 3 months; for Solid Form after storage: 3 months. On the procedure: Form I, Form II, Form III and Form VI were stored under different conditions of 25° C./60% RH and 40° C./75% RH for 3 months. XRPD was applied to detect the crystalline forms. The XRPD overlay of Form I, Form II, Form III and Form VI before and after stored under above two conditions were shown in FIG. 44, FIG. 45, FIG. 46 and FIG. 47, respectively.

In another data set the test system is type 1 diabetics. To be noted: Phase 2, type 1 diabetics, compared with placebo; cited from earlier work.
Data set [9] concerns people with type 2 diabetes. To be noted: Phase 2, type 2 diabetes, including those with renal impairment; cited from earlier work.
[10] abbreviates: Table 27, head prints Media:SGF, text says FaSSIF pH=6.5, equilibrated for 1 hour.

In brackets after ≈: the same amount, converted by molar mass. Entries after “also recorded” stand apart in the source; their conditions may differ.

On to `CCOc1ccc(Cc2cc([C@@H]3O[C@H](SC)[C@@H](O)[C@H](O)[C@H]3O)ccc2Cl)cc1` [Form 2, (2S,3R,4R,5S,6R)-2-(4-chloro-3-(4-ethoxybenzyl)phenyl)-6-(methylthio)tetrahydro-2H-pyran-3,4,5-triol, reference compound], for which the “Crystal shape (PLM)” value in [1] was “needle-like shape”. Further, in data set [2], the “Particle size distribution (description)” value is “wide and bimodal”; the D10 is listed as 2.32 μm; the D50 is recorded as 45.00 μm; the D90 was 144.4 μm. Besides, the “MV (average particle size based on volume)” value (from here on “MV”) in data set [2] amounted to 60.43 μm. In data set [3] (setting [10]), the “Solubility 1 hour” value is recorded as 0.13 mg/mL (≈ 306 µM). For the same molecule, the “Solubility 1 hour” value in data set [4] is 0.06 mg/mL (≈ 141 µM). Also, in [5], the Crystallinity result was “Decreased (Mainly”, the Final form entry was “Form 2” and the Mechanical stability entry is listed as “poor mechanical stability”.
With `CCOc1ccc(Cc2cc([C@@H]3O[C@H](SC)[C@@H](O)[C@H](O)[C@H]3O)ccc2Cl)cc1` [Form II, (2S,3R,4R,5S,6R)-2-(4-chloro-3-(4-ethoxybenzyl)phenyl)-6-(methylthio)tetrahydro-2H-pyran-3,4,5-triol], the concentration in solution in [3] (fasted state simulated intestinal fluid (FaSSIF), pH 6.5, fassif, thermodynamic from solid, Table 27, head prints Media:SGF, text says FaSSIF pH=6.5, equilibrated for 1 hour) (solubility at 1 h) came to 150 µg/mL (≈ 353 µM). Also, the “Solubility 1 hour” value in [4] is 0.08 mg/mL (≈ 188 µM). The “Stability in high water activity environment” value in data set [6] was “more stable than Form 2”. Besides, the “Weight gain under 80% RH” value in data set [7] (cycle 20%-95%-0%-95% RH) amounted to 2.46%. Further, in [7] (cycle 20%-95%-0%-95% RH), the “Form change before and after DVS” value was “substantially unchanged; also recorded: No form change”. Moreover, the Stability on storage entry in data set [8] is reported as “good stability”. The “Solid Form after storage” value in [8] (25° C./60% RH) is recorded as “Form II (the middle”; in data set [8] (40° C./75% RH) it was “Form II (the bottom”.
In the case of `CCOc1ccc(Cc2cc([C@@H]3O[C@H](SC)[C@@H](O)[C@H](O)[C@H]3O)ccc2Cl)cc1` [Form III, (2S,3R,4R,5S,6R)-2-(4-chloro-3-(4-ethoxybenzyl)phenyl)-6-(methylthio)tetrahydro-2H-pyran-3,4,5-triol], the “Solubility relative to existing crystalline Form 2” value is reported as 1.4 times in data set [3] and 2.2 times in data set [4]. The “Solubility 1 hour” value in data set [3] (setting [10]) is reported as 0.18 mg/mL (≈ 424 µM); in data set [4] it was 0.13 mg/mL (≈ 306 µM). Further, in [7] (cycle 20%-95%-0%-95% RH), the “Weight gain under 80% RH” value was 0.13%. In addition, the “Form change before and after DVS” value in data set [7] (cycle 20%-95%-0%-95% RH) is recorded as “substantially unchanged; also recorded: No form change”. Moreover, the Stability on storage result in data set [8] is listed as “good stability”. In addition, the results for the “Solid Form after storage” value in data set [8] (25° C./60% RH) and in [8] (40° C./75% RH) were “Form III (the middle” and “Form III (the bottom”, respectively.
On to `CCOc1ccc(Cc2cc([C@@H]3O[C@H](SC)[C@@H](O)[C@H](O)[C@H]3O)ccc2Cl)cc1` [Form V, (2S,3R,4R,5S,6R)-2-(4-chloro-3-(4-ethoxybenzyl)phenyl)-6-(methylthio)tetrahydro-2H-pyran-3,4,5-triol], for which, in [2], the “Particle size distribution (description)” value was “narrow and normal”; the D10 was determined as 4.38 μm; the D50 stood at 18.81 μm; the D90 was 72.98 μm. In data set [2], the “MV” value worked out at 32.70 μm.
On to `CCOc1ccc(Cc2cc([C@@H]3O[C@H](SC)[C@@H](O)[C@H](O)[C@H]3O)ccc2Cl)cc1` [Form VI, (2S,3R,4R,5S,6R)-2-(4-chloro-3-(4-ethoxybenzyl)phenyl)-6-(methylthio)tetrahydro-2H-pyran-3,4,5-triol], for which, in data set [7] (cycle 20%-95%-0%-95% RH), the “Weight gain under 80% RH” value amounted to 1.80%; the “Form change before and after DVS” value is listed as “substantially unchanged; also recorded: No form change”. Further, in data set [5], the Crystallinity result was “Decreased (Slightly”, the Final form entry was “no crystalline form change; also recorded: Form VI” and the Mechanical stability entry is “better mechanical stability”. Also, in [8], the Stability on storage result is “good stability”. Besides, the “Solid Form after storage” value in data set [8] (25° C./60% RH) is recorded as “Form VI (the middle”. For the same molecule, in data set [8] (40° C./75% RH), the “Solid Form after storage” value is given as “Form VI (the bottom”.
As to `CCOc1ccc(Cc2cc([C@@H]3O[C@H](SC)[C@@H](O)[C@H](O)[C@H]3O)ccc2Cl)cc1` [Form VII, (2S,3R,4R,5S,6R)-2-(4-chloro-3-(4-ethoxybenzyl)phenyl)-6-(methylthio)tetrahydro-2H-pyran-3,4,5-triol], the “Crystal shape (PLM)” value in data set [1] is recorded as “irregular massive shape”. Besides, the “Solubility relative to existing crystalline Form 2” value in [3] is given as 1.5 times; in data set [4] it was 2.5 times. The “Solubility 1 hour” value in [3] (setting [10]) is on record as 0.20 mg/mL (≈ 471 µM); in [4], 0.15 mg/mL (≈ 353 µM). In addition, the “Weight gain under 80% RH” value in data set [7] (cycle 0%-95%-0% RH) stood at 1.08%. For the same molecule, the “Form change before and after DVS” value in [7] (cycle 0%-95%-0% RH) was “substantially unchanged; also recorded: No form change”.
`CCOc1ccc(Cc2cc([C@@H]3O[C@H](SC)[C@@H](O)[C@H](O)[C@H]3O)ccc2Cl)cc1` [Form VIII, (2S,3R,4R,5S,6R)-2-(4-chloro-3-(4-ethoxybenzyl)phenyl)-6-(methylthio)tetrahydro-2H-pyran-3,4,5-triol]: in [2], the “Particle size distribution (description)” value was “narrow and normal”; the D10 was 7.30 μm; the D50 came to 36.60 μm; the D90 came out at 112.4 μm. In [2], the “MV” value is 51.93 μm. The “Solubility relative to existing crystalline Form 2” value in data set [3] is reported as 1.4 times. For the same molecule, in data set [3] (setting [10]), the “Solubility 1 hour” value is 0.18 mg/mL (≈ 424 µM). In addition, in data set [7] (cycle 0%-95%-0% RH), the “Weight gain under 80% RH” value is given as 0.60%; the “Form change before and after DVS” value is on record as “substantially unchanged; also recorded: No form change”.
With `CCOc1ccc(Cc2cc([C@@H]3O[C@H](SC)[C@@H](O)[C@H](O)[C@H]3O)ccc2Cl)cc1` [Sotagliflozin, (2S,3R,4R,5S,6R)-2-(4-chloro-3-(4-ethoxybenzyl)phenyl)-6-(methylthio)tetrahydro-2H-pyran-3,4,5-triol], in the data set with type 1 diabetics, the Blood sugar entry is reported as “reduction of blood sugar”, the Glycaemic variability entry is given as “improvement in glycaemic variability” and the Meal-time insulin dose entry was “reduced meal-time insulin dose”. Further, in data set [9], the Blood pressure entry was “blood pressure improvements”, the Blood sugar entry is recorded as “lowering of blood sugar” and the Weight result is “weight loss”.
